Source: ChEMBL document CHEMBL5338745, “Factor XIa Inhibitors in Anticoagulation Therapy: Recent Advances and Perspectives” (J Med Chem, 2023)

Assays:
Chymotrypsin = Chymotrypsin (Homo sapiens, UniProt Q99895+P17538+P40313+Q6GPI1); assay: Inhibition of human chymotrypsin; type: protein assay
Plasminogen = Plasminogen (Homo sapiens, UniProt P00747); assay: Inhibition of human plasmin
Trypsin = Trypsin (Homo sapiens, UniProt P07477+P07478+P35030); assay: Inhibition of human trypsin; type: protein assay
Coagulation factor VII = target: T1, Coagulation factor VII (Homo sapiens, UniProt P08709); assay: Inhibition of human FVIIa
T1 sequence (P08709 whole entry): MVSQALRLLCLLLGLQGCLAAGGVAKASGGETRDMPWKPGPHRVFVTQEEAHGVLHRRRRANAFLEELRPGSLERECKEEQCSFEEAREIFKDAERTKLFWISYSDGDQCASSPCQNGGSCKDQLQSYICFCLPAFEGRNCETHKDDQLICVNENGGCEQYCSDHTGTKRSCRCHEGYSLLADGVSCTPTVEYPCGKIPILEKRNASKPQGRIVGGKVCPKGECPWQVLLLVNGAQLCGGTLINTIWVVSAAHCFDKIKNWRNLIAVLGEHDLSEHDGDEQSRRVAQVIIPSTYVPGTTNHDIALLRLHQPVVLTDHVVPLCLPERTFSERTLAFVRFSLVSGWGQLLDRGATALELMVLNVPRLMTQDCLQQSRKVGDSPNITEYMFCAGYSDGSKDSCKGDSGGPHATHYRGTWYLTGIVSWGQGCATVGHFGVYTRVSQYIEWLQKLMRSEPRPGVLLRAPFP

Coagulation factor XII = target: T2, Coagulation factor XII (Homo sapiens, UniProt P00748); assay: Inhibition of human FXIIa
T2 sequence (P00748 whole entry): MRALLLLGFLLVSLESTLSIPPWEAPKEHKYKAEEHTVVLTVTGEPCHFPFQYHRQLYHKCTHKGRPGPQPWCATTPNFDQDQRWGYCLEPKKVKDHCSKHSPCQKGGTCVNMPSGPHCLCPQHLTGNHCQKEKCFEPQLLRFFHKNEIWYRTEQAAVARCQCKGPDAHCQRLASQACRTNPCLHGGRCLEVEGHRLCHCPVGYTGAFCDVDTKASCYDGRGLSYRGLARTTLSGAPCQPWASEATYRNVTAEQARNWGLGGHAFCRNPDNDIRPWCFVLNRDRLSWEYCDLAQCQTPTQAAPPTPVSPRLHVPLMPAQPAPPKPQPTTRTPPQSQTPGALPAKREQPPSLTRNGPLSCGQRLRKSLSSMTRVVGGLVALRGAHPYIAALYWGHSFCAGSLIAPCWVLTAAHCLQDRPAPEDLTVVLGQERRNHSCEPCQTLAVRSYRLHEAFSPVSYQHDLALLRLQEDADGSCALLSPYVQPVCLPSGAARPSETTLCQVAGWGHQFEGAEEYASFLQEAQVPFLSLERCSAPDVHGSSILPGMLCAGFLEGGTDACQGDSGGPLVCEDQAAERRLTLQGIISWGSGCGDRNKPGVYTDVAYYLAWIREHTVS

Coagulation factor XI = Coagulation factor XI (Homo sapiens, UniProt P03951); assay: Inhibition of FXIa (unknown origin)
Coagulation factor X = Coagulation factor X (Homo sapiens, UniProt P00742); assay: Inhibition of human FXa
Prothrombin = Prothrombin (Homo sapiens, UniProt P00734); assay: Inhibition of human thrombin

Sequence of Coagulation factor X (P00742 41-179 limits assumed): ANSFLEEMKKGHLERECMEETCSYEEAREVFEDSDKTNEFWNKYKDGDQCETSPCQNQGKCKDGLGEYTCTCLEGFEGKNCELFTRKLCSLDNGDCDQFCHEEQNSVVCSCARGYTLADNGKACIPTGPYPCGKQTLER
Sequence of Coagulation factor X (P00742 235-488 limits assumed): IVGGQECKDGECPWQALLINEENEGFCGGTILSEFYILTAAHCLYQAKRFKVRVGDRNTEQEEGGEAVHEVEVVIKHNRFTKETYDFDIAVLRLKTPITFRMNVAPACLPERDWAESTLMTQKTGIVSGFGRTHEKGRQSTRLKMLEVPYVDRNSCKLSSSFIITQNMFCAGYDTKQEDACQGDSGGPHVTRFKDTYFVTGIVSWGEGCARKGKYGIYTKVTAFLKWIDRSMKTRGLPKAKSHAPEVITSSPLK
Sequence of Coagulation factor XI (P03951 19-387 limits assumed): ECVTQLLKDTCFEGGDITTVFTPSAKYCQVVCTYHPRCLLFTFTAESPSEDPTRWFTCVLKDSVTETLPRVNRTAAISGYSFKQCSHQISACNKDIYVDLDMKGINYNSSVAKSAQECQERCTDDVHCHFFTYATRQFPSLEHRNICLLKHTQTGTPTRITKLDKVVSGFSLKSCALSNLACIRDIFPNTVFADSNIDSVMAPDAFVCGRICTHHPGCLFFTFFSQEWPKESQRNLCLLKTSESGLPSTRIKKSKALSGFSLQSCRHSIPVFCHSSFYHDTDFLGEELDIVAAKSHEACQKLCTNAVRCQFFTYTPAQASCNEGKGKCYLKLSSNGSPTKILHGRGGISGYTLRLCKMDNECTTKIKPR
Sequence of Coagulation factor XI (P03951 388-625 limits assumed): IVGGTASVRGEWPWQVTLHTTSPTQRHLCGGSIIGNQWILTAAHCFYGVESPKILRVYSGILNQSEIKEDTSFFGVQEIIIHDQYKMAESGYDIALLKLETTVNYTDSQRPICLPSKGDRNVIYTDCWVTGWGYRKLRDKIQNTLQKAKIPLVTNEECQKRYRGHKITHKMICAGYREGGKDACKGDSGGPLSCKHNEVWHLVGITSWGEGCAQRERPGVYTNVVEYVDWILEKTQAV
Sequence of Plasminogen (P00747 97-580 limits assumed): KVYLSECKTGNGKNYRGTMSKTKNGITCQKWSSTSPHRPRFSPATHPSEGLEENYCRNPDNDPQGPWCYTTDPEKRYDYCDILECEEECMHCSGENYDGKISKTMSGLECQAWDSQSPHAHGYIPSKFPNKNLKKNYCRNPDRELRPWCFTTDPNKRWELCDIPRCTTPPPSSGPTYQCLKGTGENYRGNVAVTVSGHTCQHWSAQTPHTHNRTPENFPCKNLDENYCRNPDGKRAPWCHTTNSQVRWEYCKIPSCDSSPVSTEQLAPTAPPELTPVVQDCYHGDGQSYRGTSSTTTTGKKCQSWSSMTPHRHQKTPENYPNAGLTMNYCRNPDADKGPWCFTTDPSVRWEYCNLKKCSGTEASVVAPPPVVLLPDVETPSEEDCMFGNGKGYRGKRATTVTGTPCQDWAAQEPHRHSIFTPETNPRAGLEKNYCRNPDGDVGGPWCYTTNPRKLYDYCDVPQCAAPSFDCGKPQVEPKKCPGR
Sequence of Plasminogen (P00747 581-810 limits assumed): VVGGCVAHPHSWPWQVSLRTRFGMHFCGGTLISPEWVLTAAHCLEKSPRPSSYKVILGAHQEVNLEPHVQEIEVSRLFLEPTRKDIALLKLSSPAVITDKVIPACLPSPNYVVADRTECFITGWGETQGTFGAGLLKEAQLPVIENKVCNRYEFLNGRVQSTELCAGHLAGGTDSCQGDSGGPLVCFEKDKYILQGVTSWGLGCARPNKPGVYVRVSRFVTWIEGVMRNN

**Q.** How did the IC50 (Chymotrypsin) turn out when O=C(O[C@H]1[C@H](OC(=O)c2cc(OS(=O)(=O)[O-])cc(OS(=O)(=O)[O-])c2)[C@H](OC(=O)c2cc(OS(=O)(=O)[O-])cc(OS(=O)(=O)[O-])c2)[C@@H](OC(=O)c2cc(OS(=O)(=O)[O-])cc(OS(=O)(=O)[O-])c2)[C@H](OC(=O)c2cc(OS(=O)(=O)[O-])cc(OS(=O)(=O)[O-])c2)[C@H]1OC(=O)c1cc(OS(=O)(=O)[O-])cc(OS(=O)(=O)[O-])c1)c1cc(OS(=O)(=O)[O-])cc(OS(=O)(=O)[O-])c1.[Na+].[Na+].[Na+].[Na+].[Na+].[Na+].[Na+].[Na+].[Na+].[Na+].[Na+].[Na+] was run?
**A.** The IC50 was > 40 µM.

**Q.** What about the IC50 (Plasminogen) of the same compound?
**A.** The IC50 was > 40 µM.

**Q.** And the IC50 (Trypsin)?
**A.** The IC50 was > 40 µM.

**Q.** And the IC50 (Coagulation factor VII)?
**A.** Its IC50 is > 40 µM.

**Q.** And the IC50 (Coagulation factor XII)?
**A.** Its IC50 is > 40 µM.

**Q.** And the IC50 (Coagulation factor XI)?
**A.** Its IC50 is 280 nM.

**Q.** And the IC50 (Coagulation factor X)?
**A.** The IC50 was > 40 µM.

**Q.** And the IC50 (Prothrombin)?
**A.** Its IC50 is > 40 µM.
